{
  "source": "paper PMC4491176",
  "about": "“Caenorhabditis elegans is a useful model for anthelmintic discovery” (Nature Communications, 2015)",
  "key": {"[1]": {"test_system": "C. onchophora", "assay": "C. oncophora egg hatch chemical screen", "format": "in vivo, Cooperia onchophora", "set-up": "key: 1 = yes", "conditions": "90-100% lethal at 7.5 or 60 μM", "experimental": "(§1) Fresh cattle and sheep faeces containing eggs of an ivermectin-resistant strain of C. onchophora[39] and the MHco3(ISE) strain of H. contortus, respectively, were kindly supplied by Dr Doug Colwell and Dawn Gray (Lethbridge Research Station, Agriculture and Agri-Food Canada). Experimental infections used to generate this material were carried out using established methods, and were approved by the Lethbridge AAFC Animal Care committee and conducted under animal use license ACC1407. Cattle faeces containing C. onchophora eggs were stored anaerobically at 4 °C for a maximum of 3 weeks, whereas sheep faeces containing H. contortus eggs were stored at 20 °C for no more than 48 h before harvesting eggs for use. Eggs were isolated from faeces using a standard saturated salt flotation method[42] immediately before each egg hatch assay. Approximately 100 eggs suspended in 100 μl of water were added to each well of a 96-well plate, and the wactive library chemicals were screened at two different concentrations (7.5 and 60 μM, 0.6% DMSO v/v). Baseline egg hatch rates were determined in DMSO control wells ∼48 h after the initial set-up of the assay by the addition of iodine tincture to stop development. […] A dissection microscope was used for visualization purposes."}, "[2]": {"test_system": "H. contortus", "assay": "H. contortus egg hatch chemical screen", "format": "in vivo, Haemonchus contortus", "conditions": "90-100% lethal at 7.5 or 60 μM", "experimental": "as §1"}, "[3]": {"test_system": "D. rerio", "assay": "Zebrafish embryo chemical screening", "format": "in vivo, Danio rerio (zebrafish)", "conditions": "embryos, 10 μM, death or toxicity at 24 and 48 h post fertilization", "experimental": "Wild-type (AB) zebrafish embryos were collected in E3 solution (5 mM NaCl, 0.17 mM KCl, 0.33 mM CaCl2, 0.33 mM MgSO4) immediately after fertilization and arrayed at three embryos per well in 96-well plates, 200 μl per well. Wild-type (AB) zebrafish were originally obtained from Zebrafish International Resource Center (University of Oregon). Chemicals were added to each well at 6 h post fertilization at a final concentration of 10 μM (0.5% v/v DMSO), with each plate containing nine wells of DMSO controls. Embryos were examined for mortality and observable developmental phenotypes at 24 and 48 h post fertilization using an Olympus SZX10 Brightfield microscope. Phenotypes examined were death, developmental delay, reduced pigmentation, cranial oedema or cardiac defects (slow/absent heart rate, abnormal heart size). Each compound was screened in duplicate, with only phenotypes appearing in both replicates associated with a given compound. Any compound producing multiple, distinct phenotypes across replicates (for example, cardiac defects in one replicate, mortality in another) was labelled ‘toxic'. A molecule was considered ‘lethal' to zebrafish if it induced ‘death' or ‘toxicity'."}, "[4]": {"test_system": "C. elegans", "assay": "C. elegans liquid-based chemical screening of the wactive library", "format": "in vivo, Caenorhabditis elegans", "set-up": "key: 1 = yes", "experimental": "(§2) The 96-well liquid-based chemical screening assay was adapted from an established RNAi screening protocol. Briefly, saturated HB101 Escherichia coli culture was concentrated 2-fold using NGM (nematode growth media) containing 3 mg ml^−1 NaCl, 2.5 mg ml^−1 peptone, 5 μg ml^−1 cholesterol, 1 mM CaCl2, 1 mM MgSO4 and 25 mM KH2PO4. A total of 40 μl of NGM+HB101 was dispensed into each well of a 96-well plate, and chemicals were pinned into the wells using a pinning tool with a 300 nl slot volume (V&P Scientific). Approximately 20 synchronized first larval-stage (L1) worms, in 10 μl of M9 buffer (see ref. [24] for the recipe), were then added to each well. The synchronized L1s were obtained from an embryo preparation (see ref. [24] for the protocol) performed the previous day. The final concentration of dimethyl sulfoxide (DMSO) in the wells was 0.6% v/v. A dissection microscope was used to visualize the wells either 5 or 6 days post worm deposition and any obvious chemical-induced phenotypes were noted.\nFor our preliminary screens, 50,596 out of 67,012 compounds were assayed in liquid at a 60 μM concentration, and the other 16,416 molecules were screened on solid media at 25 μM (see ref. [24] for a description of our solid-based screening method). […]"}, "[5]": {"test_system": "three nematode species, zebrafish and HEK cells", "assay": "Grouping by phylogenetic bioactivity profile (multi-organism screening pipeline)", "set-up": "key: Group 1 molecules are lethal to only one or two of the three nematode species tested, but are non-lethal to zebrafish and HEK cells.; Group 2 molecules are lethal to all three nematode species, but are non-lethal to zebrafish and human cells.; Group 3 molecule are lethal to fish or HEK cells, regardless of their nematode bioactivity profile", "conditions": "nematode selectivity and cross-species lethality group", "text": "To further characterize our 275 C. elegans-lethal molecules, we organized them into three separate groups based on their phylogenetic bioactivity profiles (Fig. 2a). Group 1 contains 102 molecules that are lethal to only one or two of the three nematode species tested, but are non-lethal to zebrafish and HEK cells. Group 2 contains 67 compounds that are lethal to all three nematode species, but are non-lethal to zebrafish and human cells. Group 3 contains the remaining 106 compounds that are lethal to fish or HEK cells, and have varied bioactivity in different nematode species. In particular, the 67 molecules in group 2 represent potentially ideal anthelmintic leads; they have activity across multiple nematode species, and appear not to affect vertebrates."}, "[6]": {"test_system": "wact-11-family resistant C. elegans mutants (RP2674, RP2698 and others)", "assay": "96-well liquid-based dose-response (in vivo LD100), wact-11-family resistant mutants", "conditions": "liquid dose-response of resistant mutants versus N2", "experimental": "as §2\nThe 96-well liquid-based assay was also used for all follow-up dose-response experiments in this work. These experiments were carried out in quadruplicate, and the total number of worms in each well was counted 6 days after worm deposition."}, "[7]": {"test_system": "HEK293T cells", "assay": "HEK293 cell proliferation (BrdU) chemical screening", "format": "cell-based", "conditions": "60 μM, BrdU normalized signal <0.16", "experimental": "HEK293T cells (Attisano Lab, University of Toronto) were maintained in Dulbecco's Modified Eagle's Medium (Gibco) supplemented with 10% FBS (DMEM-10% FBS). Cells at a concentration of 50 cells μl^−1 were seeded into 96-well plates at a final volume of 100 μl (∼5,000 cells per well). Chemicals from the wactive library were added to the wells for a final concentration of 60 μM (0.6% DMSO v/v). The wactive library plates were screened at least in triplicate. Cell proliferation was determined using a bromodeoxyuridine (BrdU) assay kit (Exalpha Biologicals Inc.). The BrdU was added 2 days after chemical addition. Fixation and denaturation was performed ∼16–18 h later. Anti-BrdU antibody was added, and incorporated BrdU was detected using a horseradish peroxidase-conjugated goat anti-mouse antibody. The BrdU incorporation signal was measured at 450/550 nm for the amount of conversion of tetra-methylbenzidine that is proportional to the amount of BrdU incorporated. For each replicate of each plate, the average signal for the DMSO control wells was calculated. For each well in the plate (including the DMSO control wells), the signal was normalized by dividing by the average DMSO signal. The mean and standard deviation for the population of 960 normalized sample signals of the 10-plate wactive library were calculated and found to be […] and 0.44, respectively."}},
  "data": [
    {"compound": "Brc1ccc(-c2noc(-c3cccs3)n2)cc1", "note": "[wact-2]", "values": [
      {"measurement": "C. onchophora Lethal (1 = yes)", "setting": "[1]", "value": 1},
      {"measurement": "H. contortus Lethal (1 = yes)", "setting": "[2]", "value": 0},
      {"measurement": "D. rerio Lethal (1 = yes)", "setting": "[3]", "value": 0},
      {"measurement": "C. elegans Lethal (1 = yes)", "setting": "[4]; 100% lethality at 60 μM or less", "value": 1},
      {"measurement": "Wactive (1 = yes)", "setting": "[4]; induces obvious phenotype in C. elegans at 60 μM or less", "value": 1},
      {"measurement": "Group # (Bioactivity Group #)", "setting": "[5]", "value": 1},
      {"measurement": "Resistance of wact-11-family resistant mutants to compound-induced lethality (in words)", "setting": "[6]", "value": "not"},
      {"measurement": "HEK Cell Growth Decrease (1 = yes)", "setting": "[7]", "value": 0}
    ]}
  ]
}
